Results published in paper PMC5218480 (PLoS ONE, 2017).

Tested on: MV-4-11 cells
Assay: Gene expression microarray analysis (Affymetrix PrimeView) and GSEA
Assay type: cell-based, human
Parameters: RFU PODN (11730768_x_at) / Fold change /veh PODN (11730768_x_at) / RFU LINC00158 (11744669_a_at) / Fold change /veh LINC00158 (11744669_a_at) / RFU DUSP10 (11751237_a_at) / Fold change /veh DUSP10 (11751237_a_at) / RFU ID3 (11757404_x_at) / Fold change /veh ID3 (11757404_x_at) / RFU PLEKHG5 (11737974_s_at) / Fold change /veh PLEKHG5 (11737974_s_at) / RFU LRRC4B (11730491_at) / Fold change /veh LRRC4B (11730491_at) / RFU GIMAP4 (11747438_a_at) / Fold change /veh GIMAP4 (11747438_a_at) / RFU KRT8 (11758183_x_at) / Fold change /veh KRT8 (11758183_x_at) / RFU CNN1 (11734310_a_at) / Fold change /veh CNN1 (11734310_a_at) / RFU VPS37D (11726825_at) / Fold change /veh VPS37D (11726825_at) / RFU C10orf10 (11716522_x_at) / Fold change /veh C10orf10 (11716522_x_at) / RFU KIR2DL2 /// KIR2DL4 /// KIR2DL5A /// KIR2DL5B /// KIR2DS1 /// KIR2DS2 /// KIR2DS3 /// KIR2DS4 /// KIR3DL3 /// KIR3DL3 /// KIR3DS1 (11738374_at) / Fold change /veh KIR2DL2 /// KIR2DL4 /// KIR2DL5A /// KIR2DL5B /// KIR2DS1 /// KIR2DS2 /// KIR2DS3 /// KIR2DS4 /// KIR3DL3 /// KIR3DL3 /// KIR3DS1 (11738374_at) / RFU C1QL1 (11718748_at) / Fold change /veh C1QL1 (11718748_at) / RFU TMPRSS4 (11747572_a_at) / Fold change /veh TMPRSS4 (11747572_a_at) / RFU HAMP (11756126_x_at) / Fold change /veh HAMP (11756126_x_at) / RFU RNFT2 (11725882_a_at) / Fold change /veh RNFT2 (11725882_a_at) / RFU NR4A2 (11747474_a_at) / Fold change /veh NR4A2 (11747474_a_at) / RFU ABCC12 (11746883_a_at) / Fold change /veh ABCC12 (11746883_a_at) / RFU TMEM136 (11760407_x_at) / Fold change /veh TMEM136 (11760407_x_at) / RFU CLDN22 /// WWC2 (11732394_at) / Fold change /veh CLDN22 /// WWC2 (11732394_at) / RFU HLA-DPB1 (11760878_x_at) / Fold change /veh HLA-DPB1 (11760878_x_at) / RFU SPINT1 (11716480_a_at) / Fold change /veh SPINT1 (11716480_a_at) / RFU GAP43 (11754022_s_at) / Fold change /veh GAP43 (11754022_s_at) / RFU A4GNT (11735810_at) / Fold change /veh A4GNT (11735810_at) / RFU PRB3 (11715151_x_at) / Fold change /veh PRB3 (11715151_x_at) / RFU TUBB4B (11761932_at) / Fold change /veh TUBB4B (11761932_at) / RFU CAPN14 (11732068_a_at) / Fold change /veh CAPN14 (11732068_a_at) / RFU TMCC2 (11721928_a_at) / Fold change /veh TMCC2 (11721928_a_at) / RFU IRGQ (11745062_a_at) / Fold change /veh IRGQ (11745062_a_at) / RFU FAM174B (11720279_a_at) / Fold change /veh FAM174B (11720279_a_at) / RFU TMPRSS4 (11748680_a_at) / Fold change /veh TMPRSS4 (11748680_a_at) / RFU FAM212B (11763350_a_at) / Fold change /veh FAM212B (11763350_a_at) / RFU PLEKHG5 (11743358_a_at) / Fold change /veh PLEKHG5 (11743358_a_at) / RFU ZSCAN30 (11745921_a_at) / Fold change /veh ZSCAN30 (11745921_a_at) / RFU CMKLR1 (11741424_a_at) / Fold change /veh CMKLR1 (11741424_a_at) / RFU LOC101060620 /// MAPK8IP1 (11723275_at) / Fold change /veh LOC101060620 /// MAPK8IP1 (11723275_at) / RFU SPTSSB (11747773_x_at) / Fold change /veh SPTSSB (11747773_x_at) / RFU PRSS12 (11739890_at) / Fold change /veh PRSS12 (11739890_at) / RFU BIN1 (11741810_x_at) / Fold change /veh BIN1 (11741810_x_at) / RFU WNT11 (11732464_a_at) / Fold change /veh WNT11 (11732464_a_at) / RFU C10orf10 (11716521_a_at) / Fold change /veh C10orf10 (11716521_a_at) / RFU C5orf56 (11738089_at) / Fold change /veh C5orf56 (11738089_at) / RFU CYB561 (11721691_x_at) / Fold change /veh CYB561 (11721691_x_at) / RFU ANKRD19P (11752326_a_at) / Fold change /veh ANKRD19P (11752326_a_at) / RFU OR2T12 /// OR2T33 /// OR2T8 (11738714_s_at) / Fold change /veh OR2T12 /// OR2T33 /// OR2T8 (11738714_s_at) / RFU VCAN (11748164_a_at) / Fold change /veh VCAN (11748164_a_at) / RFU JSRP1 (11732532_at) / Fold change /veh JSRP1 (11732532_at) / RFU KRTAP10-11 (11738290_x_at) / Fold change /veh KRTAP10-11 (11738290_x_at) / RFU MYO3A (11730013_a_at) / Fold change /veh MYO3A (11730013_a_at) / RFU EBF3 (11725865_a_at) / Fold change /veh EBF3 (11725865_a_at) / RFU CAMK2N1 (11719241_x_at) / Fold change /veh CAMK2N1 (11719241_x_at) / RFU C5orf56 (11738088_a_at) / Fold change /veh C5orf56 (11738088_a_at) / RFU OLFML3 (11715873_a_at) / Fold change /veh OLFML3 (11715873_a_at) / RFU LOC100653217 /// NTM (11731650_a_at) / Fold change /veh LOC100653217 /// NTM (11731650_a_at) / RFU MAPK11 (11762145_a_at) / Fold change /veh MAPK11 (11762145_a_at) / RFU FIZ1 (11724087_x_at) / Fold change /veh FIZ1 (11724087_x_at) / RFU OASL (11726364_x_at) / Fold change /veh OASL (11726364_x_at) / RFU SOX15 (11748057_x_at) / Fold change /veh SOX15 (11748057_x_at) / RFU CD79A (11719716_a_at) / Fold change /veh CD79A (11719716_a_at) / RFU HIST1H1D (11736915_at) / Fold change /veh HIST1H1D (11736915_at) / RFU CASKIN2 (11723855_a_at) / Fold change /veh CASKIN2 (11723855_a_at) / RFU LOC730098 (11760151_x_at) / Fold change /veh LOC730098 (11760151_x_at) / RFU OR4N2 (11742367_at) / Fold change /veh OR4N2 (11742367_at) / RFU PRRT2 (11749266_a_at) / Fold change /veh PRRT2 (11749266_a_at) / RFU SNX32 (11753110_a_at) / Fold change /veh SNX32 (11753110_a_at) / RFU CDHR5 (11726645_a_at) / Fold change /veh CDHR5 (11726645_a_at) / RFU RCAN1 (11760418_a_at) / Fold change /veh RCAN1 (11760418_a_at) / RFU FAM167A (11723789_a_at) / Fold change /veh FAM167A (11723789_a_at) / RFU FAM26E (11764081_at) / Fold change /veh FAM26E (11764081_at) / RFU ISYNA1 (11749810_s_at) / Fold change /veh ISYNA1 (11749810_s_at) / RFU ACY1 (11761880_at) / Fold change /veh ACY1 (11761880_at) / RFU 11764098_at / Fold change /veh 11764098_at / RFU SAMD14 (11745864_x_at) / Fold change /veh SAMD14 (11745864_x_at) / RFU NPB (11741838_a_at) / Fold change /veh NPB (11741838_a_at) / RFU TMPRSS6 (11731388_a_at) / Fold change /veh TMPRSS6 (11731388_a_at) / RFU KRTAP10-2 (11738614_at) / Fold change /veh KRTAP10-2 (11738614_at) / RFU ARHGAP8 /// PRR5-ARHGAP8 (11727945_x_at) / Fold change /veh ARHGAP8 /// PRR5-ARHGAP8 (11727945_x_at) / RFU KRTAP5-7 /// NADSYN1 (11734609_at) / Fold change /veh KRTAP5-7 /// NADSYN1 (11734609_at) / RFU RASL12 (11751679_a_at) / Fold change /veh RASL12 (11751679_a_at) / RFU CDKN2B (11736163_a_at) / Fold change /veh CDKN2B (11736163_a_at) / RFU PRF1 (11729649_at) / Fold change /veh PRF1 (11729649_at) / RFU, ZNF638 /// ZNF638-IT1 / Fold change vs veh, ZNF638 /// ZNF638-IT1 / RFU, PANK3 / Fold change vs veh, PANK3 / RFU, SH3YL1 / Fold change vs veh, SH3YL1 / RFU, ZEB2 / Fold change vs veh, ZEB2 / RFU, NRIP1 / Fold change vs veh, NRIP1 / RFU, PTTG1IP / Fold change vs veh, PTTG1IP / RFU, CAPN2 / Fold change vs veh, CAPN2 / RFU, MED14 / Fold change vs veh, MED14 / RFU, SNORA58 / Fold change vs veh, SNORA58 / RFU, C1orf63 / Fold change vs veh, C1orf63 / RFU, LRRFIP1 / Fold change vs veh, LRRFIP1 / RFU, NDUFAF7 / Fold change vs veh, NDUFAF7 / RFU, SLC12A2 / Fold change vs veh, SLC12A2 / RFU, IBTK / Fold change vs veh, IBTK / RFU, ESF1 / Fold change vs veh, ESF1 / Fold change vs veh, TMEM50B / RFU, TAOK1 / Fold change vs veh, TAOK1 / RFU, ACBD3 / Fold change vs veh, ACBD3 / RFU, TMA16 / Fold change vs veh, TMA16 / RFU, RWDD3 / Fold change vs veh, RWDD3 / RFU, BCAT1 / Fold change vs veh, BCAT1 / RFU, EDEM3 / Fold change vs veh, EDEM3 / RFU, TMEM33 / Fold change vs veh, TMEM33 / RFU, WDR75 / Fold change vs veh, WDR75 / RFU, AHCTF1 / Fold change vs veh, AHCTF1 / RFU, TFRC / Fold change vs veh, TFRC / RFU, ZDHHC17 / Fold change vs veh, ZDHHC17 / RFU, NOM1 / Fold change vs veh, NOM1 / RFU, ARL8B / Fold change vs veh, ARL8B / RFU, ZBTB11 / Fold change vs veh, ZBTB11 / RFU, TAMM41 / Fold change vs veh, TAMM41 / RFU, KIAA1704 /// LOC100996395 / Fold change vs veh, KIAA1704 /// LOC100996395 / RFU, ING1 / Fold change vs veh, ING1 / RFU, TRMT61B / Fold change vs veh, TRMT61B / RFU, FUBP3 / Fold change vs veh, FUBP3 / RFU, TP53 / Fold change vs veh, TP53 / RFU, TNKS2 / Fold change vs veh, TNKS2 / RFU, ZFP14 / Fold change vs veh, ZFP14 / RFU, ACTR2 / Fold change vs veh, ACTR2 / RFU, PPP3R1 / Fold change vs veh, PPP3R1 / RFU, PIK3R1 / Fold change vs veh, PIK3R1 / RFU, HNRNPA1 / Fold change vs veh, HNRNPA1 / RFU, RNF170 / Fold change vs veh, RNF170 / RFU, ZNF28 / Fold change vs veh, ZNF28 / RFU, RNGTT / Fold change vs veh, RNGTT / RFU, OGT / Fold change vs veh, OGT / RFU, BRD1 / Fold change vs veh, BRD1 / RFU, MARS / Fold change vs veh, MARS / RFU, ZNF655 / Fold change vs veh, ZNF655 / RFU, FAHD1 / Fold change vs veh, FAHD1 / RFU, BDP1 / Fold change vs veh, BDP1 / RFU, LRRCC1 / Fold change vs veh, LRRCC1 / RFU, ARID1A / Fold change vs veh, ARID1A / RFU, ZNF146 / Fold change vs veh, ZNF146 / RFU, ZNF330 / Fold change vs veh, ZNF330 / RFU, GPN3 / Fold change vs veh, GPN3 / RFU, C9orf123 / Fold change vs veh, C9orf123 / RFU, N4BP2L2 / Fold change vs veh, N4BP2L2 / RFU, ARFIP1 / Fold change vs veh, ARFIP1 / RFU, FAM179B / Fold change vs veh, FAM179B / RFU, BCL10 / Fold change vs veh, BCL10 / RFU, UHRF1BP1L / Fold change vs veh, UHRF1BP1L / RFU, BET1 / Fold change vs veh, BET1 / RFU, CNOT2 / Fold change vs veh, CNOT2 / RFU, ZNF268 / Fold change vs veh, ZNF268 / Fold change vs veh, ZNF507 / RFU, DGCR2 / Fold change vs veh, DGCR2 / RFU, WDSUB1 / Fold change vs veh, WDSUB1 / Fold change vs veh, HSP90B1 /// MIR3652 / RFU, ADSS / Fold change vs veh, ADSS / RFU, GK / Fold change vs veh, GK / RFU, ZNF148 / Fold change vs veh, ZNF148 / RFU, TAF9 / Fold change vs veh, TAF9 / RFU, SLC1A5 / Fold change vs veh, SLC1A5 / RFU, SLMO2 / Fold change vs veh, SLMO2 / RFU, ABCC4 / Fold change vs veh, ABCC4 / RFU, LOC101060439 /// RAP1B / Fold change vs veh, LOC101060439 /// RAP1B / RFU, RFX7 / Fold change vs veh, RFX7 / RFU, GTPBP10 / Fold change vs veh, GTPBP10 / RFU, CNEP1R1 / Fold change vs veh, CNEP1R1 / RFU, BIVM-ERCC5 /// ERCC5 / Fold change vs veh, BIVM-ERCC5 /// ERCC5 / RFU, ILF3 / Fold change vs veh, ILF3 / RFU 11762660_at / Fold change /veh 11762660_at / RFU VCAN (11757783_s_at) / Fold change /veh VCAN (11757783_s_at) / RFU DDX43 (11728927_at) / Fold change /veh DDX43 (11728927_at) / RFU KRT8 (11758188_x_at) / Fold change /veh KRT8 (11758188_x_at) / RFU NKD1 (11759106_at) / Fold change /veh NKD1 (11759106_at) / RFU SRD5A1 (11742802_a_at) / Fold change /veh SRD5A1 (11742802_a_at) / RFU TPSAB1 /// TPSB2 (11721975_s_at) / Fold change /veh TPSAB1 /// TPSB2 (11721975_s_at) / RFU GSTM3 (11746129_a_at) / Fold change /veh GSTM3 (11746129_a_at) / RFU IL23R (11737362_x_at) / Fold change /veh IL23R (11737362_x_at) / RFU TMEM51 (11727254_a_at) / Fold change /veh TMEM51 (11727254_a_at) / RFU PIWIL2 (11732686_x_at) / Fold change /veh PIWIL2 (11732686_x_at) / RFU ORM1 (11744905_x_at) / Fold change /veh ORM1 (11744905_x_at) / RFU CCDC152 (11743942_at) / Fold change /veh CCDC152 (11743942_at) / RFU ECM1 (11717891_a_at) / Fold change /veh ECM1 (11717891_a_at) / RFU IL23R (11748794_a_at) / Fold change /veh IL23R (11748794_a_at) / RFU TNFAIP8L3 (11732012_x_at) / Fold change /veh TNFAIP8L3 (11732012_x_at) / RFU MBOAT4 (11741988_at) / Fold change /veh MBOAT4 (11741988_at) / RFU 11764193_at / Fold change /veh 11764193_at / RFU TMEM53 (11763286_at) / Fold change /veh TMEM53 (11763286_at) / RFU MAGEB2 (11727129_at) / Fold change /veh MAGEB2 (11727129_at) / RFU TMEM200A (11744735_a_at) / Fold change /veh TMEM200A (11744735_a_at) / RFU CCDC152 (11751479_a_at) / Fold change /veh CCDC152 (11751479_a_at) / RFU FAM211A (11726209_a_at) / Fold change /veh FAM211A (11726209_a_at) / RFU RGS16 (11746705_a_at) / Fold change /veh RGS16 (11746705_a_at) / RFU VCAN (11755009_s_at) / Fold change /veh VCAN (11755009_s_at) / RFU RHOB (11743442_s_at) / Fold change /veh RHOB (11743442_s_at) / RFU RGS16 (11720943_a_at) / Fold change /veh RGS16 (11720943_a_at) / RFU RGS16 (11720944_at) / Fold change /veh RGS16 (11720944_at) / RFU, VPS4B / Fold change vs veh, VPS4B / RFU, CREB1 / Fold change vs veh, CREB1 / RFU, DNAJC13 / Fold change vs veh, DNAJC13 / RFU, GNAQ / Fold change vs veh, GNAQ / RFU, CDK5R1 / Fold change vs veh, CDK5R1 / RFU, ZRANB3 / Fold change vs veh, ZRANB3 / RFU, CUL4A / Fold change vs veh, CUL4A / RFU, CCNY / Fold change vs veh, CCNY / RFU, UFL1 / Fold change vs veh, UFL1 / RFU, COG3 / Fold change vs veh, COG3 / RFU, DIAPH2 / Fold change vs veh, DIAPH2 / RFU, SKA2 / Fold change vs veh, SKA2 / RFU, AFF3 / Fold change vs veh, AFF3 / RFU, LMF1 / Fold change vs veh, LMF1 / RFU, IPO11 / Fold change vs veh, IPO11 / RFU, DFFB / Fold change vs veh, DFFB / RFU, FOXP1 / Fold change vs veh, FOXP1 / RFU, CARD8 / Fold change vs veh, CARD8 / RFU, STRN3 / Fold change vs veh, STRN3 / RFU, ADK / Fold change vs veh, ADK / RFU, RASSF2 / Fold change vs veh, RASSF2 / RFU, WIPF1 / Fold change vs veh, WIPF1 / RFU, LARP1B / Fold change vs veh, LARP1B / RFU, RASA1 / Fold change vs veh, RASA1 / RFU, RB1 / Fold change vs veh, RB1 / RFU, PPFIA1 / Fold change vs veh, PPFIA1 / RFU, MAT2A / Fold change vs veh, MAT2A / RFU, CCT5 / Fold change vs veh, CCT5 / RFU, WDR92 / Fold change vs veh, WDR92 / RFU, CUX1 / Fold change vs veh, CUX1 / RFU, TTC7A / Fold change vs veh, TTC7A / RFU, TMEM135 / Fold change vs veh, TMEM135 / RFU, DEPTOR / Fold change vs veh, DEPTOR / RFU, CPM / Fold change vs veh, CPM / RFU, DNAJB6 / Fold change vs veh, DNAJB6 / RFU, CACNA2D3 / Fold change vs veh, CACNA2D3 / RFU, DTX4 / Fold change vs veh, DTX4 / RFU, TFCP2 / Fold change vs veh, TFCP2 / RFU, GMCL1 /// GMCL1P1 / Fold change vs veh, GMCL1 /// GMCL1P1 / RFU, AEBP2 / Fold change vs veh, AEBP2 / RFU, SNHG1 /// SNORD22 /// SNORD25 /// SNORD26 /// SNORD27 /// SNORD28 /// SNORD29 /// SNORD31 / Fold change vs veh, SNHG1 /// SNORD22 /// SNORD25 /// SNORD26 /// SNORD27 /// SNORD28 /// SNORD29 /// SNORD31 / Fold change (Aza/veh), C12orf56 (ProbeSet 11735607_a_at) / Fold change (ACY-1035/veh), C12orf56 (ProbeSet 11735607_a_at) / Fold change (Aza/veh), FGFR1OP (ProbeSet 11751329_s_at) / Fold change (ACY-1035/veh), FGFR1OP (ProbeSet 11751329_s_at) / Fold change (Aza/veh), VPS36 (ProbeSet 11739960_a_at) / Fold change (ACY-1035/veh), VPS36 (ProbeSet 11739960_a_at) / RFU SYPL1 (11715823_x_at) / Fold change /veh SYPL1 (11715823_x_at) / RFU IGFBP7 (11715501_s_at) / Fold change /veh IGFBP7 (11715501_s_at) / RFU REEP3 (11722064_at) / Fold change /veh REEP3 (11722064_at) / RFU IGLL1 (11728026_x_at) / Fold change /veh IGLL1 (11728026_x_at): dose or concentration left out as unconfirmed
Settings: ProbeSet 11724763_s_at; LIST D

SMILES: Nc1ncn([C@@H]2O[C@H](CO)[C@@H](O)[C@H]2O)c(=O)n1 [azacitidine]
- Fold change vs veh, DEPTOR: 0.65
